# Earlier results in article PMC4303313 (Biochemistry, 2014).
# Columns and labels:
# reduced RfBP = target: T1, reduced RfBP (Gallus gallus, UniProt P02752); conditions: no GSH
# T1 sequence (P02752 18-238): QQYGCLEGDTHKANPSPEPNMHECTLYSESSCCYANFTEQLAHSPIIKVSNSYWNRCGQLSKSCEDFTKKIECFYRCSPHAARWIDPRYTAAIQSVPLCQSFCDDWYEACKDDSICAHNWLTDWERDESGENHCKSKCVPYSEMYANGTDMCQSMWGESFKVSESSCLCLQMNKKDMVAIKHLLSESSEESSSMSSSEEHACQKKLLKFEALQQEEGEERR
# reduced RNase = target: T2, reduced RNase (Bos taurus, UniProt P61823)
# T2 sequence (P61823 27-150): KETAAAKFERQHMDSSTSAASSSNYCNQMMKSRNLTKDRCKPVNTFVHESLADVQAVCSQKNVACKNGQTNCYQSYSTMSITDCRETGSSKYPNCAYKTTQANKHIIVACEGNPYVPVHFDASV
smiles,measurement,setting,value
C[As](O)O [MMA],effect on ability of reoxidized RfBP to rebind riboflavin,reduced RfBP,profoundly attenuated
same,formation of filamentous deposits from reduced RNase,reduced RNase; no GSH,led to the formation of filamentous deposits
same,formation of aggregates from reduced RNase,reduced RNase; reduced RNase and GSH,do not appear
